Assay results as given in ChEMBL document CHEMBL1649532, “Trypanocidal activity of 8-methyl-5'-{[(Z)-4-aminobut-2-enyl]-(methylamino)}adenosine (Genz-644131), an adenosylmethionine decarboxylase inhibitor” (Antimicrob Agents Chemother, 2009).
Converted amounts (≈) assume the structure as drawn. The source made the active and inactive calls. The rule behind the calls is not given here.

What was measured:
[1] = tested on: Trypanosoma brucei rhodesiense; assay: Trypanocidal activity against Trypanosoma brucei rhodesiense KETRI243 after 48 hrs; format: functional, organism-based; conditions: KETRI243, 48 h
[2] = tested on: Trypanosoma brucei rhodesiense; assay: Trypanocidal activity against Trypanosoma brucei rhodesiense KETRI1992 infected in mouse assessed as protection against trypanosomal infection at 50 mg/kg, ip BID administered 24 hrs postinfection; format: functional, organism-based; design: dose 50 mg/kg
[3] = tested on: Trypanosoma brucei brucei; assay: Trypanocidal activity against Trypanosoma brucei brucei 667 infected in mouse assessed as average day of relapse of trypanosomal infection at 100 mg/kg, ip BID for 14 days; format: functional; conditions: route intraperitoneal
[4] = tested on: Trypanosoma brucei rhodesiense; assay: Trypanocidal activity against Trypanosoma brucei rhodesiense KETRI243 infected in mouse assessed as average survival time at 50 mg/kg, ip BID administered 24 hrs postinfection; format: functional; conditions: route intraperitoneal
[5] = tested on: Trypanosoma brucei rhodesiense; assay: Trypanocidal activity against Trypanosoma brucei rhodesiense KETRI2002 infected in mouse assessed as average survival time at 10 mg/kg, ip BID administered 24 hrs postinfection; format: functional; conditions: route intraperitoneal
[6] = tested on: Trypanosoma brucei rhodesiense; assay: Trypanocidal activity against Trypanosoma brucei rhodesiense KETRI1992 infected in mouse assessed as average survival time at 10 mg/kg, ip BID administered 24 hrs postinfection; format: functional; conditions: route intraperitoneal
[7] = tested on: Trypanosoma brucei rhodesiense; assay: Trypanocidal activity against Trypanosoma brucei rhodesiense KETRI2002 infected in mouse assessed as average survival time at 50 mg/kg, ip QD administered 24 hrs postinfection; format: functional; conditions: route intraperitoneal
[8] = tested on: Trypanosoma brucei brucei; assay: Trypanocidal activity against Trypanosoma brucei brucei EATRO infected in mouse assessed as protection against trypanosomal infection at 10 mg/kg, ip BID for 4 days; format: functional, organism-based; design: dose 10 mg/kg
[9] = tested on: Trypanosoma brucei rhodesiense; assay: Trypanocidal activity against Trypanosoma brucei rhodesiense KETRI1992 infected in mouse assessed as average survival time at 10 mg/kg, ip QD administered 24 hrs postinfection; format: functional; conditions: route intraperitoneal
[10] = tested on: Trypanosoma brucei brucei; assay: Trypanocidal activity against Trypanosoma brucei brucei EATRO infected in mouse assessed as mean survival time at 2 mg/kg, ip BID for 4 days; format: functional; conditions: route intraperitoneal
[11] = tested on: Trypanosoma brucei rhodesiense; assay: Trypanocidal activity against Trypanosoma brucei rhodesiense KETRI243 infected in mouse assessed as protection against trypanosomal infection at 25 mg/kg, ip QD administered 24 hrs postinfection; format: functional, organism-based; design: dose 25 mg/kg
[12] = tested on: Trypanosoma brucei brucei; assay: Trypanocidal activity against Trypanosoma brucei brucei EATRO infected in mouse assessed as mean survival time at 50 mg/kg, ip BID for 4 days; format: functional; conditions: route intraperitoneal
[13] = tested on: Trypanosoma brucei brucei; assay: Trypanocidal activity against Trypanosoma brucei brucei EATRO infected in mouse assessed as mean survival time at 1 mg/kg, ip QD for 4 days; format: functional; conditions: route intraperitoneal
[14] = tested on: Trypanosoma brucei rhodesiense; assay: Trypanocidal activity against Trypanosoma brucei rhodesiense KETRI1992 infected in mouse assessed as average survival time at 25 mg/kg, ip QD administered 24 hrs postinfection; format: functional; conditions: route intraperitoneal
[15] = tested on: Trypanosoma brucei rhodesiense; assay: Trypanocidal activity against Trypanosoma brucei rhodesiense KETRI243 infected in mouse assessed as average survival time at 50 mg/kg, ip QD administered 24 hrs postinfection; format: functional; conditions: route intraperitoneal
[16] = tested on: Trypanosoma brucei brucei; assay: Trypanocidal activity against Trypanosoma brucei brucei EATRO infected in mouse assessed as protection against trypanosomal infection at 10 mg/kg, ip QD for 4 days; format: functional, organism-based; design: dose 10 mg/kg
[17] = tested on: Trypanosoma brucei rhodesiense; assay: Trypanocidal activity against Trypanosoma brucei rhodesiense KETRI2002 infected in mouse assessed as protection against trypanosomal infection at 10 mg/kg, ip QD administered 24 hrs postinfection; format: functional, organism-based; design: dose 10 mg/kg
[18] = tested on: Trypanosoma brucei rhodesiense; assay: Trypanocidal activity against Trypanosoma brucei rhodesiense KETRI2002 infected in mouse assessed as cure rate at 50 mg/kg, ip BID administered 24 hrs postinfection; format: functional; conditions: route intraperitoneal
[19] = tested on: Trypanosoma brucei brucei; assay: Trypanocidal activity against Trypanosoma brucei brucei EATRO infected in mouse assessed as mean survival time at 25 mg/kg, ip QD for 4 days; format: functional; conditions: route intraperitoneal
[20] = tested on: Trypanosoma brucei rhodesiense; assay: Trypanocidal activity against Trypanosoma brucei rhodesiense KETRI2002 infected in mouse assessed as average survival time at 10 mg/kg, ip QD administered 24 hrs postinfection; format: functional; conditions: route intraperitoneal
[21] = tested on: Trypanosoma brucei brucei; assay: Trypanocidal activity against Trypanosoma brucei brucei EATRO infected in mouse assessed as protection against trypanosomal infection at 50 mg/kg, ip BID for 4 days; format: functional, organism-based; design: dose 50 mg/kg
[22] = tested on: Trypanosoma brucei brucei; assay: Trypanocidal activity against Trypanosoma brucei brucei EATRO infected in mouse assessed as protection against trypanosomal infection at 25 mg/kg, ip QD for 4 days; format: functional, organism-based; design: dose 25 mg/kg
[23] = tested on: Trypanosoma brucei brucei; assay: Trypanocidal activity against Trypanosoma brucei brucei 667 infected in mouse assessed as average day of relapse of trypanosomal infection at 50 mg/kg, ip BID for 7 days; format: functional; conditions: route intraperitoneal
[24] = tested on: Trypanosoma brucei brucei; assay: Trypanocidal activity against Trypanosoma brucei brucei EATRO after 48 hrs; format: functional, organism-based
[25] = tested on: Trypanosoma brucei brucei; assay: Trypanocidal activity against Trypanosoma brucei brucei 667 infected in mouse assessed as average day of relapse of trypanosomal infection at 10 mg/kg, ip BID for 7 days; format: functional; conditions: route intraperitoneal
[26] = tested on: Trypanosoma brucei rhodesiense; assay: Trypanocidal activity against Trypanosoma brucei rhodesiense KETRI243 infected in mouse assessed as protection against trypanosomal infection at 10 mg/kg, ip QD administered 24 hrs postinfection; format: functional, organism-based; design: dose 10 mg/kg
[27] = tested on: Trypanosoma brucei brucei; assay: Trypanocidal activity against Trypanosoma brucei brucei EATRO infected in mouse assessed as protection against trypanosomal infection at 25 mg/kg, ip BID for 4 days; format: functional, organism-based; design: dose 25 mg/kg
[28] = tested on: Trypanosoma brucei rhodesiense; assay: Trypanocidal activity against Trypanosoma brucei rhodesiense KETRI1992 infected in mouse assessed as average survival time at 25 mg/kg, ip BID administered 24 hrs postinfection; format: functional; conditions: route intraperitoneal
[29] = tested on: Trypanosoma brucei brucei; assay: Trypanocidal activity against Trypanosoma brucei brucei EATRO infected in mouse assessed as protection against trypanosomal infection at 2.5 mg/kg, ip BID for 4 days; format: functional, organism-based; design: dose 2.5 mg/kg
[30] = tested on: Trypanosoma brucei rhodesiense; assay: Trypanocidal activity against Trypanosoma brucei rhodesiense KETRI2002 infected in mouse assessed as average survival time at 50 mg/kg, ip BID administered 24 hrs postinfection; format: functional; conditions: route intraperitoneal
[31] = tested on: Trypanosoma brucei brucei; assay: Trypanocidal activity against Trypanosoma brucei brucei EATRO infected in mouse assessed as protection against trypanosomal infection at 2 mg/kg, ip BID for 4 days; format: functional, organism-based; design: dose 2 mg/kg
[32] = tested on: Trypanosoma brucei brucei; assay: Trypanocidal activity against Trypanosoma brucei brucei 667 infected in mouse assessed as average day of relapse of trypanosomal infection at 50 mg/kg, ip BID for 14 days; format: functional; conditions: route intraperitoneal

**Q.** For `Cc1nc2c(N)ncnc2n1[C@@H]1O[C@H](CN(C)C/C=C\CN)[C@@H](O)[C@H]1O`, which IC50 [1] is on record?
**A.** 3.75 ng/mL (≈ 10.3 nM)

**Q.** And the Activity [2]?
**A.** inactive

**Q.** What about the MST [3] of the same molecule?
**A.** 72 days

**Q.** What about the MST [4] of the same molecule?
**A.** 23.3 days

**Q.** What about the MST [5] of the same molecule?
**A.** 21.5 days

**Q.** And the MST [6]?
**A.** 20.4 days

**Q.** And the MST [7]?
**A.** 21 days

**Q.** And the Activity [8]?
**A.** Active

**Q.** What about the MST [9] of the same molecule?
**A.** 16.6 days

**Q.** What about the MST [10] of the same molecule?
**A.** >35 days

**Q.** What about the Activity [11] of the same molecule?
**A.** inactive

**Q.** And the MST [12]?
**A.** >35 days

**Q.** What about the MST [13] of the same molecule?
**A.** 13.5 days

**Q.** What about the MST [14] of the same molecule?
**A.** 18.6 days

**Q.** What about the MST [15] of the same molecule?
**A.** 17.2 days

**Q.** What about the Activity [16] of the same molecule?
**A.** Active

**Q.** What about the Activity [17] of the same molecule?
**A.** inactive

**Q.** And the Activity [18]?
**A.** 80%

**Q.** And the MST [19]?
**A.** >35 days

**Q.** And the MST [20]?
**A.** 16 days

**Q.** And the Activity [21]?
**A.** Active

**Q.** What about the Activity [22] of the same molecule?
**A.** Active

**Q.** What about the MST [23] of the same molecule?
**A.** 59 days

**Q.** What about the IC50 [24] of the same molecule?
**A.** 0.58 ng/mL (≈ 1.6 nM)

**Q.** What about the MST [25] of the same molecule?
**A.** 53 days

**Q.** What about the Activity [26] of the same molecule?
**A.** inactive

**Q.** And the Activity [27]?
**A.** Active

**Q.** What about the MST [28] of the same molecule?
**A.** 23 days

**Q.** What about the Activity [29] of the same molecule?
**A.** Active

**Q.** And the MST [30]?
**A.** 22 days

**Q.** What about the Activity [31] of the same molecule?
**A.** Active

**Q.** What about the MST [32] of the same molecule?
**A.** 63.4 days
